In publication PMC3786134 (ChemMedChem, 2012):

Tests used:
[1] = target: APOBEC3G (A3G) (Homo sapiens, UniProt Q9HC16); assay: fluorescence ssDNA C-to-U deaminase assay; assay type: biochemical
[2] = target: APOBEC3A (A3A) (Homo sapiens, UniProt P31941); assay: fluorescence ssDNA C-to-U deaminase assay; assay type: biochemical
APOBEC3A (A3A), sequence (P31941 whole entry): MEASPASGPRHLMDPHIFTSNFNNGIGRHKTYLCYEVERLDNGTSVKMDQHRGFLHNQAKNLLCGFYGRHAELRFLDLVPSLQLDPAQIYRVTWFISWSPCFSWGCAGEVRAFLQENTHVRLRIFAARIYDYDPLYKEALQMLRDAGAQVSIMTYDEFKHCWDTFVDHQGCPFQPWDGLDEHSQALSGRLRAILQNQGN

APOBEC3G (A3G), sequence (Q9HC16 whole entry): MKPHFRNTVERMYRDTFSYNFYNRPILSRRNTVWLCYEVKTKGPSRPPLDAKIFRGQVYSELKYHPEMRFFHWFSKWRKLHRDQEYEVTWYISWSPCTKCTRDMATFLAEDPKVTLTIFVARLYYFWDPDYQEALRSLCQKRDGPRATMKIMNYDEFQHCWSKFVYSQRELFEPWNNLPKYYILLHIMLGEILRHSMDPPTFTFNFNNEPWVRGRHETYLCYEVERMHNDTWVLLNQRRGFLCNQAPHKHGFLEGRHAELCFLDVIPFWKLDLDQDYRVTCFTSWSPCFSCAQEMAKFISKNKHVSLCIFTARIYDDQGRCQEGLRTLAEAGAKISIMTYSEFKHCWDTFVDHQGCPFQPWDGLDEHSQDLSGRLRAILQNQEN

Compound	IC50 [1]	IC50 [2]
COc1ccc(C=Nn2c(C)nnc2S)cc1 [compound 8, 4-((4-methoxybenzylidene)amino)-5-methyl-1,2,4-triazole-3-thiol]	3.9 ± 1.2 µM	> 100 µM
S=c1[nH]ncn1N=Cc1ccc(Br)cc1 [compound 1, 4-((4-bromobenzylidene)amino)-1,2,4-triazole-3-thiol]	4.3 ± 1.1 µM	> 100 µM
Cc1nnc(S)n1NC(=O)c1ccccc1 [compound 9, N-(3-mercapto-5-methyl-1,2,4-triazol-4-yl)benzamide]	8.2 ± 1.2 µM	> 100 µM

Results, then the molecule that gave them:

IC50 [1]	IC50 [2]	Compound
6.1 ± 1.1 µM	> 100 µM	Cc1nnc(S)n1N [compound 5, 4-amino-5-methyl-1,2,4-triazole-3-thiol]
–	> 100 µM	Cc1nnc(SCc2ccccc2)n1N [compound 11, 3-(benzylthio)-5-methyl-1,2,4-triazol-4-amine]
> 100 µM	> 100 µM	Nn1cnnc1S [compound 4, 4-amino-1,2,4-triazole-3-thiol]
–	> 100 µM	Cc1nnc(O)n1N [compound 7, 4-amino-5-methyl-1,2,4-triazol-3-ol]
